Assay results as given in article PMC7004140, “In vitro hepatotoxicity of Petasites hybridus extract (Ze 339) depends on the concentration, the cytochrome activity of the cell system, and the species used” (Phytotherapy Research, 2019).

Experiments:
H-4-II-E cells = assay: WST-1 metabolic activity (cytotoxicity) in H-4-II-E cells; assay type: cell-based, rat (Rattus norvegicus); conditions: Rattus norvegicus, H4IIE, single constituents, 4 hr
Procedure: HepG2 and H‐4‐II‐E cells were differentiated for 24 hr. HepaRG cells were directly seeded in precoated 96‐well microtiter plates and were incubated in William's medium with general purpose supplements according to manufacturer's manual until adherence. All cells were treated with Ze 339 (up to 100 μg/ml) or petasin, isopetasin, neopetasin, petasol, isopetasol, petasin mixture, fatty acid mixture, and reconstituted extracts (up to 250 μM) for 4 hr.
In the three cell lines, cytotoxicity was defined as a decrease in metabolic activity of ≥20% in the WST‐1 assay. At the end of the experiment, 10 μl WST‐1 reagent was added to each well. Plates were then incubated for 2 hr to allow for the reduction of WST‐1 reagent. Absorbance was measured using a microplate absorbance reader (Infinite M 200, Tecan Trading Ltd., Switzerland) at 450 nm, reference wavelength of 620 nm. Due to some matrix effect, the lowest concentration (0.02 μg/ml for Ze 339 and 3.9 μM for single constituents and mixtures) of each substance tested was defined as 100% metabolic activity. Results were expressed as percentage of the control metabolic activity, and data were presented as mean values ± SEM (n = 3–6).
Concentration‐response analysis was done using the sigmoidal Hill equation: E(t) = E0 − Emax × C(t)^N/(IC50 ^N + C(t)^N), where E is the effect at time t, E0 the effect at baseline (time = 0), IC50 the concentration yielding 50% of the maximal effect (Emax), and N denotes the sigmoidicity coefficient (Origin 2017 Software). For statistical analysis, analysis of variance with Dunnett's multicomparison test was used to correct for multiplicity of testing (IBM SPSS Statistics software, version 25, IBM Corp., USA). The level of significance was ^* p < .05, ^** p < .01 and ^*** p < .001; NS = no significance.

CYP2C8 (human) = target: T1, CYP2C8 (human) (Homo sapiens, UniProt P10632); assay: Metabolism by isolated human CYP2C8; assay type: in vitro ADME; conditions: petasins 20 μM, 60 min
T1 construct: purchased BD Gentest (Switzerland); host or cells: baculovirus expression system
T1 sequence (P10632 1-490): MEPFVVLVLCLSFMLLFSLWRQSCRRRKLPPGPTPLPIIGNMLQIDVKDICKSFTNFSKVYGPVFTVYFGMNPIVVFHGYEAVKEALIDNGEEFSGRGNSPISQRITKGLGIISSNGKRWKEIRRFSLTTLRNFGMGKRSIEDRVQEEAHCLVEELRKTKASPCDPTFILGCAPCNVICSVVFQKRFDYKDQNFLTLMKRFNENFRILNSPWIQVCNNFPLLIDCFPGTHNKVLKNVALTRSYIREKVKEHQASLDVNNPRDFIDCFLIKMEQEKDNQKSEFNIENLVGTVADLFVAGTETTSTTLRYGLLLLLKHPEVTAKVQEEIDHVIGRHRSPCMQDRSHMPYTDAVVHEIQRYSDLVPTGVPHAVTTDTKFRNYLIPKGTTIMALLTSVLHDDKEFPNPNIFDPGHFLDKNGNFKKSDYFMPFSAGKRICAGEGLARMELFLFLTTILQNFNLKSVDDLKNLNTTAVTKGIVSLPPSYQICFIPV
From the text: (§1) The metabolism of petasin, isopetasin, and neopetasin was investigated using three different S9 fractions originating from three different species (isolated from rat, dog, and human liver homogenates containing cytochrome P450 isoforms) and isolated cytochromes of two different species (human and rat; rat analogues of the respective human cytochromes were used). For the expression of the different cytochromes, a baculovirus expression system was used according to supplier's manual. The S9 fractions or respectively single P450 cytochromes were used to mimic the liver metabolism by in vitro incubation.
(§2) The assay was carried out in triplicate in 1.5 ml glass vials with a final concentration of 20 μM of petasin, isopetasin, and neopetasin. The incubation was performed in a 37°C warm water bath. S9 fractions were thawed slowly on ice. Four different approaches were pursued by testing: (a) petasin, neopetasin, and isopetasin before (0 min) and after 60 min incubations with S9 fraction; (b) petasin, neopetasin, and isopetasin without S9 fraction after 60 min incubation; (c) vehicle as negative controls; and (d) cofactors of S9 fraction after 60‐min incubation.
(§3) A mixture of NADPH regeneration systems A (20‐fold) and B (100‐fold), phosphate buffer, and H2O was added, preincubated at 37°C, and shaken gently for 5 min. Afterwards, the recommended amount between 10 and 40 pmol/ml of enzyme or enzyme mixture was added according to manufacturer's instruction and incubated for further 60 min at 37°C and gently shaken. Afterwards, the reactions were stopped by addition of acetonitrile (400 μl). For the control sample, acetonitrile was added at 0 min incubation. The samples were centrifuged for 3 min at 10,000 × g. The supernatant was transferred to high‐performance liquid chromatography vials and analyzed by ultra‐performance liquid chromatography mass spectrometry (UPLC/MS). The UPLC analysis was performed with an UPLC Acquity H Class from Waters (Waters Corporation, Switzerland) including a quaternary high‐pressure gradient pump, an automatic sample injector, and a column thermostat. […]

CYP2C6 (rat) = target: T2, CYP2C6 (rat) (Rattus norvegicus, UniProt P05178); assay: Metabolism by isolated rat CYP2C6; assay type: in vitro ADME; conditions: petasins 20 μM, 60 min
T2 construct: purchased BD Gentest (Switzerland); host or cells: baculovirus expression system
T2 sequence (P05178 1-490): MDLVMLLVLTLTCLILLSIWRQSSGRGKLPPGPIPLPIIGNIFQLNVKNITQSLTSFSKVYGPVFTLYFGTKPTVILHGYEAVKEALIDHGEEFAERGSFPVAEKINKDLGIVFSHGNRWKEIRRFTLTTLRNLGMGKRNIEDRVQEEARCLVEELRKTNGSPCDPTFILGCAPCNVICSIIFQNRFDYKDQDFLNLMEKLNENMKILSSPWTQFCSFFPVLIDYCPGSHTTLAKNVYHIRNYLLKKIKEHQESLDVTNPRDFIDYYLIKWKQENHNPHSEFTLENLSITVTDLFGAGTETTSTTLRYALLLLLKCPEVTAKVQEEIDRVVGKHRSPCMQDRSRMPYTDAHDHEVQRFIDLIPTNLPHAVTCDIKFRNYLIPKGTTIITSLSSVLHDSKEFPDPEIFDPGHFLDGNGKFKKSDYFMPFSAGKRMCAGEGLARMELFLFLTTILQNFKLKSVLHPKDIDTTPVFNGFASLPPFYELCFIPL
From the text: as §1, §2, §3

Row | extent of metabolism by CYP2C8 (human) (CYP2C8 (human)) [%] | extent of metabolism by CYP2C6 (rat) (CYP2C6 (rat)) [%] | SMILES | EC50 (H-4-II-E cells) [µM]
1 | 44 | 75 | C/C=C(/C)C(=O)O[C@@H]1CCC2=CC(=O)C(=C(C)C)C[C@]2(C)[C@H]1C [isopetasin] | 110
2 | 54 | 94 | C=C(C)[C@@H]1C[C@@]2(C)C(=CC1=O)CC[C@@H](OC(=O)/C(C)=C\C)[C@@H]2C [petasin] | 132
3 | 71 | 72 | C=C(C)[C@H]1C[C@@]2(C)C(=CC1=O)CC[C@@H](OC(=O)/C(C)=C\C)[C@@H]2C [neopetasin] | 15.8
